Data: patent US20050089524A1, “Compositions and compounds for use as molecular adjuvant for a nicotine vaccine” (priority 2002, published 2005)
Square brackets hold non-standard residues; d marks the D form. Ends that are not written are not given here. Peptide text beside a SMILES is read from it.

How the values were obtained:
[1] = test system: human umbilical artery; assay: Smooth muscle contraction of human umbilical artery; type: cell-based; conditions: for EC50: concentration resulting in 50% maximum contraction; for pD2 ± SE: −log EC50 (M), mean ± SE, n 3
Description: (§1) Pharmacologic assays. […] Statistical analysis of the values obtained from pharmacologic assays was performed using one-way analysis of variance (ANOVA).

[2] = test system: human PMNs; assay: MPO release from human PMNs; type: cell-based; conditions: for EC50: concentration resulting in 50% maximum release of myeloperoxidase; for pD2 ± SE: −log EC50 (M), mean ± SE, n 3
Description: as §1

[3] = biological target: T1, C5aR (Homo sapiens, UniProt P21730); assay: Binding affinity for C5aRs on human PMNs (125I-C5a competition)
T1 construct: endogenous in cells; host or cells: intact human PMNs (polymorphonuclear leukocytes)
T1 sequence (P21730 1-350): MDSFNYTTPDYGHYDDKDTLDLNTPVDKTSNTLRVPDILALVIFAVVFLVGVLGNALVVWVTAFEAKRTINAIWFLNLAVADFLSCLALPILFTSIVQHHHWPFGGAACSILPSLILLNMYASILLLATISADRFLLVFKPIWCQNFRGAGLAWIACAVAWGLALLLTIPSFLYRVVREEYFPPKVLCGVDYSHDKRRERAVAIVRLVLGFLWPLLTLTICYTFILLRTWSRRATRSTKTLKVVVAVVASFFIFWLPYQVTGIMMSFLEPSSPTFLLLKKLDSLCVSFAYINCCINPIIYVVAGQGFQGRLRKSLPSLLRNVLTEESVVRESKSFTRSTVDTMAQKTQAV
Description: Pharmacologic assays. C5a-like agonistic activity was assessed by the ability of the peptides to induce smooth muscle contraction of human umbilical artery and […] from human PMNs according to previously published methods (Sanderson et al., 1994, supra; Sanderson et al., J. Med. Chem. 38, 3669, 1995; Finch et al., J. Med. Chem. 40, 877, 1997). Full concentration-response curves were generated for individual peptides and natural C5a in each assay and the EC50 values (the concentration of peptide producing 50% of the maximal response to each peptide) were calculated. pD2 transforms [−log EC50 (M)] were calculated for each concentration-response curve and reported as the mean±SE. Peptide binding affinity to the C5aR was evaluated on intact human PMNs by a competition assay using ^125I-C5a according to previously described methods (Sanderson et al., 1995, supra; Finch et al., 1997, supra). Statistical analysis of the values obtained from pharmacologic assays was performed using one-way analysis of variance (ANOVA).

[4] = test system: MUC1 epitope peptide; assay: Serum antibody response to MUC1 epitope in immunized mice (RIA); type: in vivo; conditions: C57Bl6 and Balb/c mice, 100 μg i.p. with RIBI adjuvant, three immunizations, sera at 6 weeks
Source text: iii. Animal Models. The strains of mice used for this example were inbred females 6 to 12 week old C57Bl6(H-2^b) and Balb/c (H-2^d), which were obtained from Jackson labs (Bar Harbor, Me.). […] The MUC1 peptide selected for these studies contained a motif that may bind to the H-2K^b molecule of the C57Bl6 mice; therefore, a strain of mouse that lacked this class I molecule binding motif (Balb/c) was also studied to determine the relative contribution of the class I binding motif to the antigen presentation properties of these peptides.
iv. Immunization protocol. Preimmune sera were obtained from mice, which were subsequently immunized intraperitoneally with 100 μg of the indicated peptide with RIBI adjuvant (MPL+TDM+CWS) (Sigma Immunochemicals). Animals were boosted twice at two week intervals using the same injection procedure. Sera were obtained following three immunizations (at 6 weeks).
v. Analysis of serum antibody responses. For radioimmunoassay (RIA), anti-peptide antibodies were determined, before and at different time points after immunization, in 96-well microtiter plates (Dynatech Laboratories, Inc.). Plates were coated with 50 μl of a 100 μg/ml appropriate peptide in phosphate-buffered saline (PBS) pH 7.4 solution overnight at 4° C. The wells were blocked by incubation with 5% dry milk in PBS pH 7.4 for at least two hours. Anti-peptide antibody titers were determined using serial dilutions of sera. The sera were diluted with PBS containing 0.05% Tween-20, pH 7.4 (washing buffer) and 50 μl of each dilution was incubated at 37° C. for 1 hour. The wells were then drained, washed 4 times with PBS-Tween and 50 μl of ^125I-goat anti-mouse Ab (1-2×10^4 cpm/well) was added and incubated for 1 hr at 25° C. After washing, specific radioactivity was recorded in a gamma counter (1272 CliniGamma, LKB).
vi. Experimental groups. […]

[5] = test system: MUC1 peptide; assay: MUC1-specific antibody isotype titers in immunized mice (ELISA); type: in vivo; conditions: for MUC1 specific Ab titer, IgA / MUC1 specific Ab titer, IgG1 / MUC1 specific Ab titer, IgG2a / MUC1 specific Ab titer, IgG2b / MUC1 specific Ab titer, IgG3 / MUC1 specific Ab titer, IgM: five C57BL6 mice, mean titer of responders, sera screened against MUC1 peptide
[6] = test system: 51Cr-labeled P815S (HBsAg transfectant) target cells; assay: HBsAg-specific CTL response of immunized mice (51Cr-release assay); type: in vivo, BALB/c mice; conditions: for % Specific Lysis: s.c. in PBS, boost day 21, spleen cells day 42; for antigen-specific CTL response: three s.c. injections of 50 μg at 21 day intervals, no added adjuvant

Molecule | EC50 [1] [µM] | pD2 ± SE [1] | EC50 [2] [µM] | pD2 ± SE [2] | EC50 [3] [µM] | IC50 [3] [µM] | antibody response to MUC1 epitope (RIA) [4] | % Specific Lysis ([6]; Effector:Target Ratio 6.25:1) [%] | % Specific Lysis ([6]; Effector:Target Ratio 12.5:1) [%] | % Specific Lysis ([6]; Effector:Target Ratio 25:1) [%] | % Specific Lysis ([6]; Effector:Target Ratio 50:1) [%] | further results
CC[C@H](C)[C@H](NC(=O)[C@H](CCCNC(=N)N)NC(=O)[C@H](CCCNC(=N)N)NC(=O)[C@H](CCCNC(=N)N)NC(=O)[C@@H](C)NC(=O)[C@H](CC(C)C)NC(=O)[C@@H]1CCCN1C(=O)[C@H](CCSC)NC(=O)[C@@H]1CCCN1C(=O)[C@H](CCCCN)NC(=O)[C@H](Cc1ccccc1)NC(=O)[C@H](CO)NC(=O)[C@@H](N)Cc1ccc(O)cc1)C(=O)N1CCC[C@H]1C(=O)N[C@@H](CCC(N)=O)C(=O)N[C@@H](CO)C(=O)N[C@@H](CC(C)C)C(=O)N[C@@H](CC(=O)O)C(=O)N[C@@H](CO)C(=O)N[C@@H](Cc1c[nH]c2ccccc12)C(=O)N[C@@H](Cc1c[nH]c2ccccc12)C(=O)N[C@H](C(=O)N[C@@H](CO)C(=O)N[C@@H](CC(C)C)C(=O)O)[C@@H](C)O (H-YSFKPMPL[dA]RRRIPQSLDSWWTSL-OH; N-terminus and C-terminus assumed) | 39.4 | 4.41 ± 0.06 | > 1000 | >3 | 465 | 468 | – | – | – | – | – | –
YKQGGFLGLYSFKPMPLaR [peptide 3] | – | – | – | – | – | – | substantial responses were produced | – | – | – | – | MUC1 specific Ab titer, IgA [5]: 0; MUC1 specific Ab titer, IgG1 [5]: 0; MUC1 specific Ab titer, IgG2a [5]: 1260; MUC1 specific Ab titer, IgG2b [5]: 1780 (5/5); MUC1 specific Ab titer, IgG3 [5]: 0 (5/5); MUC1 specific Ab titer, IgM [5]: 6310 (5/5); isotypes of the anti-peptide antibodies produced ([5]; immunized mice, FIG. 3): IgM, IgG2a, and IgG2b; specificity of the antibody response for the MUC1 epitope ([5]; immunized mice, FIG. 4): includes a high percentage of antibodies that are specific for the MUC1 epitope
IPQSLDSWWTSLRR | – | – | – | – | – | – | – | 0 | 1 | 2 | 2 | –
CC[C@H](C)[C@H](N)C(=O)N1CCC[C@H]1C(=O)N[C@@H](CCC(N)=O)C(=O)N[C@@H](CO)C(=O)N[C@@H](CC(C)C)C(=O)N[C@@H](CC(=O)O)C(=O)N[C@@H](CO)C(=O)N[C@@H](Cc1c[nH]c2ccccc12)C(=O)N[C@@H](Cc1c[nH]c2ccccc12)C(=O)N[C@H](C(=O)N[C@@H](CO)C(=O)N[C@@H](CC(C)C)C(=O)N[C@@H](Cc1ccc(O)cc1)C(=O)N[C@@H](CO)C(=O)N[C@@H](Cc1ccccc1)C(=O)N[C@@H](CCCCN)C(=O)N1CCC[C@H]1C(=O)N[C@@H](CCSC)C(=O)N1CCC[C@H]1C(=O)N[C@@H](CC(C)C)C(=O)N[C@H](C)C(=O)N[C@@H](CCCNC(=N)N)C(=O)O)[C@@H](C)O (H-IPQSLDSWWTSLYSFKPMPL[dA]R-OH; N-terminus assumed) | 0.21 | 6.68 ± 0.17 | 1.58 | 5.80 ± 0.04 | 3.69 | 3.72 | – | 1 | 2 | 4 | 6 | antigen-specific CTL response [6]: lack of a CTL response
YKQGGFLGL [peptide 1] | – | – | – | – | – | – | no appreciable increase in antibody response | – | – | – | – | –
YKQGGFLGL-KLH: MUC1 epitope conjugated to keyhole limpet hemocyanine (KLH) (also: conjugated to KLH) [reference compound] | – | – | – | – | – | – | – | – | – | – | – | MUC1 specific Ab titer, IgA [5]: 0; MUC1 specific Ab titer, IgG1 [5]: 100 (2/5); MUC1 specific Ab titer, IgG2a [5]: 0; MUC1 specific Ab titer, IgG2b [5]: 0; MUC1 specific Ab titer, IgG3 [5]: 0; MUC1 specific Ab titer, IgM [5]: 5010 (4/5)
IPQSLDSWWTSL [free L^d MHC class I-restricted HBsAg peptide S28-39] | – | – | – | – | – | – | – | 3 | 3 | 5 | 7 | –
CC[C@H](C)[C@H](N)C(=O)N1CCC[C@H]1C(=O)N[C@@H](CCC(N)=O)C(=O)N[C@@H](CO)C(=O)N[C@@H](CC(C)C)C(=O)N[C@@H](CC(=O)O)C(=O)N[C@@H](CO)C(=O)N[C@@H](Cc1c[nH]c2ccccc12)C(=O)N[C@@H](Cc1c[nH]c2ccccc12)C(=O)N[C@H](C(=O)N[C@@H](CO)C(=O)N[C@@H](CC(C)C)C(=O)N[C@@H](CCCNC(=N)N)C(=O)N[C@@H](CCCNC(=N)N)C(=O)N[C@@H](Cc1ccc(O)cc1)C(=O)N[C@@H](CO)C(=O)N[C@@H](Cc1ccccc1)C(=O)N[C@@H](CCCCN)C(=O)N1CCC[C@H]1C(=O)N[C@@H](CCSC)C(=O)N1CCC[C@H]1C(=O)N[C@@H](CC(C)C)C(=O)N[C@H](C)C(=O)N[C@@H](CCCNC(=N)N)C(=O)NCC(=O)O)[C@@H](C)O (H-IPQSLDSWWTSLRRYSFKPMPL[dA]RG-OH; N-terminus and C-terminus assumed) | 6.78 | 5.17 ± 0.13 | 2.56 | 5.59 ± 0.28 | 17 | 17 | – | – | – | – | – | –
YSFKPMPLaRKQGGFLGL [peptide 4] | – | – | – | – | – | – | immune responses were not produced | – | – | – | – | –
CC[C@H](C)[C@H](N)C(=O)N1CCC[C@H]1C(=O)N[C@@H](CCC(N)=O)C(=O)N[C@@H](CO)C(=O)N[C@@H](CC(C)C)C(=O)N[C@@H](CC(=O)O)C(=O)N[C@@H](CO)C(=O)N[C@@H](Cc1c[nH]c2ccccc12)C(=O)N[C@@H](Cc1c[nH]c2ccccc12)C(=O)N[C@H](C(=O)N[C@@H](CO)C(=O)N[C@@H](CC(C)C)C(=O)N[C@@H](CCCNC(=N)N)C(=O)N[C@H](C(=O)N[C@@H](CCCNC(=N)N)C(=O)N[C@@H](CCCNC(=N)N)C(=O)N[C@@H](Cc1ccc(O)cc1)C(=O)N[C@@H](CO)C(=O)N[C@@H](Cc1ccccc1)C(=O)N[C@@H](CCCCN)C(=O)N1CCC[C@H]1C(=O)N[C@@H](CCSC)C(=O)N1CCC[C@H]1C(=O)N[C@@H](CC(C)C)C(=O)N[C@H](C)C(=O)N[C@@H](CCCNC(=N)N)C(=O)O)C(C)C)[C@@H](C)O (H-IPQSLDSWWTSLRVRRYSFKPMPL[dA]R-OH; N-terminus assumed) | 0.18 | 6.67 ± 0.22 | 2.15 | 5.61 ± 0.19 | 0.529 | 0.525 | – | – | – | – | – | antigen-specific CTL response [6]: able to elicit a specific CTL response that was significantly above background levels
